Experimental data reported in PubChem BioAssay AID2060494 (Molecular Pharmacology Branch, DTP, NCI, 2025).

System: 435261-313-R-J1-PDC complex spheroid viability
Assay: Anticancer human tumor 435261-313-R-J1-PDC patient-derived colon adenocarcinoma cell line growth inhibition [GQUAD]
Conditions: for IC50: curve of first compound; for viability, T/C: stronger effect = lower value; active = viability on the fitted dose curve at most 10% of control; inactive = the rest
Source text: DNA G-quadruplex Stabilizer Agents in Combinations in Complex Spheroids
A high-throughput screen of multi-cell type tumor spheroids was designed to identify active combinations of DNA G-quadruplex stabilizer agents and targeted small molecules. Complex spheroids include a stromal component modeled by human endothelial cells (HUVEC) and fibroblasts modeled by human mesenchymal stem cells (MSCs). The concentration ranges selected for each drug and investigational agent were based upon clinically achievable concentrations if the clinical Cmax of the agent was known.
Compounds. The drugs and investigational agents: pidnarulex (CX-5461; NSC782164), APTO-253 (NSC789042), BRACO-19 (NSC847499), peposertib (NSC802822), ceralasertib (NSC780249), elimusertib (NSC800525), camonsertib (NSC841442), AZD-1390 (NSC803789), olaparib (NSC753686), talazoparib (NSC767125), ART-558 (NSC835418), sotorasib (NSC818433), MRTX-1133 (NSC836407), SN-38 (NSC673596), topotecan (NSC609699), etoposide (NSC141540), doxorubicin (NSC123127), gemcitabine (NSC613327), 5-fluorouracil (NSC19893), paclitaxel (NSC125973), vemurafenib (NSC761431), panobinostat (NSC761190), R-306465 (JNJ-16241199; NSC773264), adavosertib (NSC754352), TP-3654 (NSC805149), carboplatin (NSC241240), KSQ-4279 (NSC840948), and staurosporine (NSC755774) were obtained from the National Cancer Institute (NCI) Developmental Therapeutics Program Chemical Repository (34). The FDA-approved anticancer drug set is available from the NCI Developmental Therapeutics Program. […] The stock solutions were prepared in dimethyl sulfoxide (DMSO, Sigma-Aldrich, St. Louis, MO, cat. D2650) at 800-fold the tested concentration and stored at -70 degrees C prior to their use. All drugs and investigational agents were tested over a range starting from a high concentration at or near the clinical Cmax and decreasing in half-log increments. If the clinical Cmax for an agent had not been determined, the highest concentration tested was 10 microM.
2.3 Cell Culture. All cells were maintained in an incubator at 37 degrees C and 5% CO2 with 95% humidity. The PDC lines were cultured according to standard operating procedures established by the NCI PDMR. All PDCs were thawed and cultured in Matrigel-coated flasks prepared with a working solution of 1X Ham's F-12 nutrient mix, without supplementation (Invitrogen, cat. 11765054), 100 U/mL penicillin-streptomycin (Invitrogen, cat. 15140122), and 2.5% Matrigel (Corning Inc., cat. 354248) for the first three passages. The 857933-349-R-J2-PDC line was cultured in 6C/Colon 1B media, which includes advanced DMEM/F-12 (Thermo Fisher Scientific, cat. 12634028), 10 mM HEPES (Thermo Fisher Scientific, cat. 15630080), 1X GlutaMAX supplement (Thermo Fisher Scientific, cat. 35050061), 0.1 mg/mL primocin (InvivoGen, cat. ant-pm-2), 10% defined fetal bovine serum, heat inactivated (HyClone Laboratories Inc., cat. SH30070.03HI), 50% L-WRN conditioned media (ATCC, cat. CRL-3276), 1.25 mM N-Acetyl-L-cysteine (Sigma-Aldrich, cat. A9165), 10 mM nicotinamide (Sigma-Aldrich, cat. N0636), 1X B-27 supplement (Thermo Fisher Scientific, cat. 17504044), 1X N-2 supplement (Thermo Fisher Scientific, cat. 17502048), 10 microM Y-27632 dihydrochloride (Tocris Bioscience, cat. 1254), and 50 ng/mL human EGF recombinant protein (Thermo Fisher Scientific, cat. PHG0311). The 485176-168-R4-J1-PDC line was cultured in Panc media, which includes all 6C/Colon 1B media components plus 100 ng/mL human FGF-10 (Thermo Fisher Scientific, cat. 100-26), 500 nM SB-431542 (Selleckchem, cat. S1067), and gastrin (Tocris, cat. 3006).
[…]

[1] = second compound 0.0316 µM, first compound 0.0316 µM
[2] = second compound 0.0316 µM, first compound 0.1 µM
[3] = second compound 0.0316 µM, first compound 0.316 µM
[4] = second compound 0.0316 µM, first compound 1 µM
[5] = second compound 0.0316 µM, first compound 3.16 µM
[6] = second compound 0.0316 µM, first compound 10 µM
[7] = second compound 0.1 µM, first compound 0.0316 µM
[8] = second compound 0.1 µM, first compound 0.1 µM
[9] = second compound 0.1 µM, first compound 0.316 µM
[10] = second compound 0.1 µM, first compound 1 µM
[11] = second compound 0.1 µM, first compound 3.16 µM
[12] = second compound 0.1 µM, first compound 10 µM
[13] = second compound 0.316 µM, first compound 0.0316 µM
[14] = second compound 0.316 µM, first compound 0.1 µM
[15] = second compound 0.316 µM, first compound 0.316 µM
[16] = second compound 0.316 µM, first compound 1 µM
[17] = second compound 0.316 µM, first compound 3.16 µM
[18] = second compound 0.316 µM, first compound 10 µM
[19] = second compound 1 µM, first compound 0.0316 µM
[20] = second compound 1 µM, first compound 0.1 µM
[21] = second compound 1 µM, first compound 0.316 µM
[22] = second compound 1 µM, first compound 1 µM
[23] = second compound 1 µM, first compound 3.16 µM
[24] = second compound 1 µM, first compound 10 µM
[25] = second compound 3.16 µM, first compound 0.0316 µM
[26] = second compound 3.16 µM, first compound 0.1 µM
[27] = second compound 3.16 µM, first compound 0.316 µM
[28] = second compound 3.16 µM, first compound 1 µM
[29] = second compound 3.16 µM, first compound 3.16 µM
[30] = second compound 3.16 µM, first compound 10 µM
[31] = second compound 10 µM, first compound 0.0316 µM
[32] = second compound 10 µM, first compound 0.1 µM
[33] = second compound 10 µM, first compound 0.316 µM
[34] = second compound 10 µM, first compound 1 µM
[35] = second compound 10 µM, first compound 3.16 µM
[36] = second compound 10 µM, first compound 10 µM
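Also: spheroids exposed to the agents for seven days before readout.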
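For viability, T/C in this document: percent of vehicle control viability with DMSO wells as 100%.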

CCCS(=O)(=O)Nc1ccc(F)c(C(=O)c2c[nH]c3ncc(-c4ccc(Cl)cc4)cc23)c1F + CN(C)c1ccc(Nc2c3ccc(NC(=O)CCN4CCCC4)cc3nc3cc(NC(=O)CCN4CCCC4)ccc23)cc1
5.35 µM: IC50 (second compound 0.316 µM)
inactive: viability, T/C [1] 123% | viability, T/C [2] 110% | viability, T/C [3] 143% | viability, T/C [4] 123% | viability, T/C [5] 85.6% | viability, T/C [6] 15.8% | viability, T/C [7] 84.3% | viability, T/C [8] 110% | viability, T/C [9] 120% | viability, T/C [10] 92.3% | viability, T/C [11] 81.6% | viability, T/C [12] 19.6% | viability, T/C [13] 124% | viability, T/C [14] 94.6% | viability, T/C [15] 92.1% | viability, T/C [16] 128% | viability, T/C [17] 76.1% | viability, T/C [18] 19.1% | viability, T/C [19] 77.3% | viability, T/C [20] 90.7% | viability, T/C [21] 105% | viability, T/C [22] 92.5% | viability, T/C [23] 77.7% | viability, T/C [24] 22.1% | viability, T/C [25] 82% | viability, T/C [26] 53.6% | viability, T/C [27] 74.7% | viability, T/C [28] 112% | viability, T/C [29] 57.1% | viability, T/C [30] 10.5% | viability, T/C [31] 45.5% | viability, T/C [32] 54.3% | viability, T/C [33] 33.9% | viability, T/C [34] 34% | viability, T/C [35] 33.8%
5.64 µM: IC50 (second compound 0.1 µM)
5.62 µM: IC50 (second compound 1 µM)
3.77 µM: IC50 (second compound 3.16 µM)
5.69 µM: IC50 (second compound 0.0316 µM)
< 0.0316 µM: IC50 (second compound 10 µM)
active: viability, T/C [36] 7.35%

CC1COCCN1c1cc(C2(S(C)(=N)=O)CC2)nc(-c2ccnc3[nH]ccc23)n1 (stereo unspecified) + Cc1[nH]c2ccc(F)cc2c1-c1nc2c3cccnc3c3ncccc3c2[nH]1
3.27 µM: IC50 (second compound 0.316 µM)
1.28 µM: IC50 (second compound 1 µM)
< 0.0316 µM: IC50 (second compound 3.16 µM) | IC50 (second compound 10 µM)
inactive: viability, T/C [1] 111% | viability, T/C [2] 85.9% | viability, T/C [3] 107% | viability, T/C [4] 60.5% | viability, T/C [5] 66% | viability, T/C [6] 52.2% | viability, T/C [7] 93% | viability, T/C [8] 106% | viability, T/C [9] 90.5% | viability, T/C [10] 83.7% | viability, T/C [11] 80.2% | viability, T/C [12] 55.4% | viability, T/C [13] 94.2% | viability, T/C [14] 127% | viability, T/C [15] 74.8% | viability, T/C [16] 106% | viability, T/C [17] 50.1% | viability, T/C [18] 47.9% | viability, T/C [19] 54.4% | viability, T/C [20] 65.6% | viability, T/C [21] 68% | viability, T/C [22] 52.6% | viability, T/C [23] 36.4% | viability, T/C [24] 30% | viability, T/C [25] 29.6% | viability, T/C [26] 37.1% | viability, T/C [27] 30.3% | viability, T/C [28] 28.9% | viability, T/C [29] 21.6% | viability, T/C [30] 12.2% | viability, T/C [31] 30.7% | viability, T/C [32] 22.6% | viability, T/C [33] 28.1% | viability, T/C [34] 18.4% | viability, T/C [35] 14.9% | viability, T/C [36] 8.85%
> 10 µM: IC50 (second compound 0.0316 µM) | IC50 (second compound 0.1 µM)

COc1ccc([C@@H](O)c2cc(-c3ncnc4cc(N5CCOCC5)ccc34)c(F)cc2Cl)nn1 + Cc1[nH]c2ccc(F)cc2c1-c1nc2c3cccnc3c3ncccc3c2[nH]1
inactive: viability, T/C [1] 88.7% | viability, T/C [2] 64.5% | viability, T/C [3] 88.6% | viability, T/C [4] 50.8% | viability, T/C [5] 44.5% | viability, T/C [6] 30.4% | viability, T/C [7] 99% | viability, T/C [8] 97.6% | viability, T/C [9] 106% | viability, T/C [10] 70.2% | viability, T/C [11] 62.7% | viability, T/C [12] 24.5% | viability, T/C [13] 63.4% | viability, T/C [14] 99.4% | viability, T/C [15] 70.5% | viability, T/C [16] 87.9% | viability, T/C [17] 51.8% | viability, T/C [18] 25.2% | viability, T/C [19] 67.8% | viability, T/C [20] 65.3% | viability, T/C [21] 82% | viability, T/C [22] 45.2% | viability, T/C [23] 55.4% | viability, T/C [24] 20% | viability, T/C [25] 45.2% | viability, T/C [26] 30.1% | viability, T/C [27] 35.5% | viability, T/C [28] 36.4% | viability, T/C [29] 13.6% | viability, T/C [31] 19.8% | viability, T/C [32] 21.9% | viability, T/C [33] 27.1% | viability, T/C [34] 18.7% | viability, T/C [35] 13.2% | viability, T/C [36] 8.61%
1.08 µM: IC50 (second compound 0.0316 µM)
2.81 µM: IC50 (second compound 1 µM)
3.42 µM: IC50 (second compound 0.316 µM)
< 0.0316 µM: IC50 (second compound 3.16 µM) | IC50 (second compound 10 µM)
4.22 µM: IC50 (second compound 0.1 µM)
active: viability, T/C [30] 10.9%
